Tested on: rhythmic bladder contractions in rats
Test: Inhibitory effect against rhythmic bladder contractions in rats
Assay type: in vivo
Details: anesthetized female SD rats, intravenous
Description: Inhibitory Effect Against Rhythmic Bladder Contractions in Rats
Female SD rats were anesthetized with an intraperitoneal administration of urethane (1.0 g/kg). A polyethylene tube was inserted from the urethra to the bladder and the tube was fixed by ligation. Then physiological saline was appropriately infused (infusion rate: about 0.2 ml/min., maximum: about 1.5 ml/animal) through the tube to cause rhythmic bladder contractions. The rhythmic bladder contractions were monitored by measuring the intravesical pressure through a polyethylene tube inserted into the bladder. After confirming that stable rhythmic bladder contractions occurred at least 10 times, a vehicle containing a prescribed dose of a test compound was intravenously administration at a dose of 1 ml/kg. In cases where the intravesical pressure, within 10 minutes after the administration of the test compound, decreased to 50% or less of the intravesical pressure immediately […] the administration, the test compound was judged as having inhibitory effect against urinary bladder contractions, and the time period until the intravesical pressure returned to more than 50% was defined as inhibitory time of rhythmic bladder contractions. As the vehicle for administration, physiological saline was used for test compounds 4, 7, 8, 9, 10, 13, 29, 30, 31, 33, 34, 75, 76, 79, 80, 81, 82, 84, 89, 90, 91, 93, 94, 95, 110 and 111, aqueous 10% dimethylsulfoxide (DMSO) solution was used for test compounds 11, 12, 14, 15, 16, 17, 18, 20, 21, 23, 28, 46, 47, 50, 55, 56, 57, 58, 59, 60, 61, 62, 63, 64, 65, 66, 68, 69, 70, 71, 72, 73, 74, 77, 78, 83, 85, 86, 87, 88, 92, 96, 97, 98, 99, 100, […], 103, 104, 105, 106, 107, 108 and […], aqueous 20% dimethylsulfoxide (DMSO) solution was used for test compounds 1, 2, 67 and 101, and aqueous 5% xylitol solution was used for test compounds 5 and 35. The aqueous 10% DMSO solution, aqueous 20% DMSO solution and the aqueous 5% xylitol solution per se, which may influence on the inhibitory time of rhythmic bladder contractions, were also tested at a dose of 1 ml/kg. With any of the compounds, prolongation of the inhibitory time of rhythmic bladder contractions was observed when compared with that obtained in the group to which the vehicle alone was administered.

For `C=CCN1CC[C@]23c4c5ccc(O)c4O[C@H]2[C@@H](N2C(=O)c4ccccc4C2=O)CC[C@@]3(O)[C@H]1C5` [Compound 64, N-(17-allyl-4,5α-epoxy-3,14-dihydroxymorphinan-6α-yl)-phthalimide], the “Mean Inhibitory Time of Rhythmic Bladder Contractions” value (shortened to “Mean Inhibitory Time”) (dose 0.01 mg/kg body weight) was 20.8 min.
For `C=CCN1CC[C@]23c4c5ccc(O)c4O[C@H]2[C@@H](N2C(=O)c4ccc(F)cc4C2=O)CC[C@@]3(O)[C@H]1C5` [Compound 65, N-(17-allyl-4,5α-epoxy-3,14-dihydroxymorphinan-6α-yl)-4-fluorophthalimide], the “Mean Inhibitory Time” value (dose 0.01 mg/kg body weight) was 18.6 min.
For `O=C1c2ccccc2C(=O)N1[C@H]1CC[C@@]2(O)[C@H]3Cc4ccc(O)c5c4[C@@]2(CCN3CC2CC2)[C@H]1O5` [Compound 66, N-(17-cyclopropylmethyl-4,5α-epoxy-3,14-dihydroxymorphinan-6α-yl)-phthalimide], the “Mean Inhibitory Time” value (dose 0.003 mg/kg body weight) was 27.4 min.
In the case of `O=C1c2cccc(F)c2C(=O)N1[C@H]1CC[C@@]2(O)[C@H]3Cc4ccc(O)c5c4[C@@]2(CCN3CC2CC2)[C@H]1O5` [Compound 67, N-(17-cyclopropylmethyl-4,5α-epoxy-3,14-dihydroxymorphinan-6α-yl)-3-fluorophthalimide], the “Mean Inhibitory Time” value (dose 0.003 mg/kg body weight) is reported as 27.3 min.
With `O=C1c2ccc(F)cc2C(=O)N1[C@H]1CC[C@@]2(O)[C@H]3Cc4ccc(O)c5c4[C@@]2(CCN3CC2CC2)[C@H]1O5` [Compound 68, N-(17-cyclopropylmethyl-4,5α-epoxy-3,14-dihydroxymorphinan-6α-yl)-4-fluorophthalimide] the “Mean Inhibitory Time” value (dose 0.001 mg/kg body weight) was 18.0 min.
`O=C1[C@H]2CCCC[C@H]2C(=O)N1[C@@H]1CC[C@@]2(O)[C@H]3Cc4ccc(O)c5c4[C@@]2(CCN3CC2CC2)[C@H]1O5` [Compound 69, N-(17-cyclopropylmethyl-4,5α-epoxy-3,14-dihydroxymorphinan-6β-yl)-hexahydrophthalimide] was tested, and the “Mean Inhibitory Time” value (dose 0.1 mg/kg body weight) was 15.7 min.
For `O=C1C(c2ccccc2)=C(c2ccccc2)C(=O)N1[C@@H]1CC[C@@]2(O)[C@H]3Cc4ccc(O)c5c4[C@@]2(CCN3CC2CC2)[C@H]1O5` [Compound 70, N-(17-cyclopropylmethyl-4,5α-epoxy-3,14-dihydroxymorphinan-6β-yl)-2,3-diphenylmaleimide], the “Mean Inhibitory Time” value (dose 0.1 mg/kg body weight) was 8.9 min.
`O=C1CC(c2ccccc2)C(=O)N1[C@@H]1CC[C@@]2(O)[C@H]3Cc4ccc(O)c5c4[C@@]2(CCN3CC2CC2)[C@H]1O5` (stereo partly drawn) [Compound 71, N-(17-cyclopropylmethyl-4,5α-epoxy-3,14-dihydroxymorphinan-6β-yl)-2-phenyl-succinimide] was tested, and the “Mean Inhibitory Time” value (dose 0.1 mg/kg body weight) was 24.9 min.
With `C=CCN1CC[C@]23c4c5ccc(O)c4O[C@H]2[C@H](N2C(=O)C4=C(CCCC4)C2=O)CC[C@@]3(O)[C@H]1C5` [Compound 73, N-(17-allyl-4,5α-epoxy-3,14-dihydroxymorphinan-6β-yl)-3,4,5,6-tetrahydrophthalimide] the “Mean Inhibitory Time” value (dose 0.03 mg/kg body weight) was 13.4 min.
`C=CCN1CC[C@]23c4c5ccc(O)c4O[C@H]2[C@@H](N2C(=O)C4=C(CCCC4)C2=O)CC[C@@]3(O)[C@H]1C5` [Compound 74, N-(17-allyl-4,5α-epoxy-3,14-dihydroxymorphinan-6α-yl)-3,4,5,6-tetrahydrophthalimide] was tested, and the “Mean Inhibitory Time” value (dose 0.03 mg/kg body weight) was 24.0 min.
`CC1=C(C)C(=O)N([C@@H]2CC[C@@]3(O)[C@H]4Cc5ccc(O)c6c5[C@@]3(CCN4CC3CC3)[C@H]2O6)C1=O` [Compound 75, N-(17-cyclopropylmethyl-4,5α-epoxy-3,14-dihydroxy-morphinan-6β-yl)-2,3-dimethyl-maleimide] was tested, and the “Mean Inhibitory Time” value (dose 0.1 mg/kg body weight) was 20.2 min.
With `CC1=C(C)C(=O)N([C@H]2CC[C@@]3(O)[C@H]4Cc5ccc(O)c6c5[C@@]3(CCN4CC3CC3)[C@H]2O6)C1=O` [Compound 76, N-(17-cyclopropylmethyl-4,5α-epoxy-3,14-dihydroxy-morphinan-6α-yl)-2,3-dimethyl-maleimide] the “Mean Inhibitory Time” value (dose 0.01 mg/kg body weight) was 16.7 min.
With `O=C1C2=C(CCCC2)C(=O)N1[C@@H]1CC[C@@]2(O)[C@H]3Cc4ccc(O)c5c4[C@@]2(CCN3CC2CC2)[C@H]1O5` [Compound 77, N-(17-cyclopropylmethyl-4,5α-epoxy-3,14-dihydroxy-morphinan-6β-yl)-3,4,5,6-tetrahydrophthalimide] the “Mean Inhibitory Time” value (dose 0.01 mg/kg body weight) was 16.6 min.
With `O=C1[C@H]2CC=CC[C@H]2C(=O)N1[C@@H]1CC[C@@]2(O)[C@H]3Cc4ccc(O)c5c4[C@@]2(CCN3CC2CC2)[C@H]1O5` [Compound 78, N-(17-cyclopropylmethyl-4,5α-epoxy-3,14-dihydroxy-morphinan-6β-yl)-cis-1,2,3,6-tetrahydrophthalimide] the “Mean Inhibitory Time” value (dose 0.1 mg/kg body weight) was 13.4 min.
`O=C1[C@H]2C[C@H]2C(=O)N1[C@@H]1CC[C@@]2(O)[C@H]3Cc4ccc(O)c5c4[C@@]2(CCN3CC2CC2)[C@H]1O5` [Compound 79, N-(17-cyclopropylmethyl-4,5α-epoxy-3,14-dihydroxy-morphinan-6β-yl)-1,2-cyclopropanedicarboimide] was tested, and the “Mean Inhibitory Time” value (dose 0.1 mg/kg body weight) was 2.1 min.
With `O=C1c2cccnc2C(=O)N1[C@@H]1CC[C@@]2(O)[C@H]3Cc4ccc(O)c5c4[C@@]2(CCN3CC2CC2)[C@H]1O5` [Compound 80, N-(17-cyclopropylmethyl-4,5α-epoxy-3,14-dihydroxy-morphinan-6β-yl)-2,3-pyridinedicarboimide] the “Mean Inhibitory Time” value (dose 0.1 mg/kg body weight) was 1.1 min.
With `O=C1c2cccc(F)c2CN1[C@@H]1CC[C@@]2(O)[C@H]3Cc4ccc(O)c5c4[C@@]2(CCN3CC2CC2)[C@H]1O5` [Compound 81, 2-(17-cyclopropylmethyl-4,5α-epoxy-3,14-dihydroxy-morphinan-6β-yl)-4-fluoro-2,3-dihydro-isoindol-1-one] the “Mean Inhibitory Time” value (dose 0.03 mg/kg body weight) was 16.1 min.
In the case of `O=C1c2cc(F)ccc2CN1[C@@H]1CC[C@@]2(O)[C@H]3Cc4ccc(O)c5c4[C@@]2(CCN3CC2CC2)[C@H]1O5` [Compound 82, 2-(17-cyclopropylmethyl-4,5α-epoxy-3,14-dihydroxy-morphinan-6β-yl)-6-fluoro-2,3-dihydro-isoindol-1-one], the “Mean Inhibitory Time” value (dose 0.03 mg/kg body weight) is reported as 19.9 min.
In the case of `O=C1C2=C(CCCC2)CN1[C@@H]1CC[C@@]2(O)[C@H]3Cc4ccc(O)c5c4[C@@]2(CCN3CC2CC2)[C@H]1O5` [Compound 83, 2-(17-cyclopropylmethyl-4,5α-epoxy-3,14-dihydroxy-morphinan-6β-yl)-2,3,4,5,6,7-hexahydro-isoindol-1-one], the “Mean Inhibitory Time” value (dose 0.1 mg/kg body weight) is reported as 10.6 min.
`C=CCN1CC[C@]23c4c5ccc(O)c4O[C@H]2[C@H](N2CC4=C(CCCC4)C2=O)CC[C@@]3(O)[C@H]1C5` [Compound 84, 2-(17-allyl-4,5α-epoxy-3,14-dihydroxy-morphinan-6-yl)-2,3,4,5,6,7-hexahydro-isoindol-1-one] was tested, and the “Mean Inhibitory Time” value (dose 0.1 mg/kg body weight) was 9.3 min.
`C=CCN1CC[C@]23c4c5ccc(O)c4O[C@H]2[C@@H](N2CC4=C(CCCC4)C2=O)CC[C@@]3(O)[C@H]1C5` [Compound 85, 2-(17-allyl-4,5α-epoxy-3,14-dihydroxy-morphinan-6α-yl)-2,3,4,5,6,7-hexahydro-isoindol-1-one] was tested, and the “Mean Inhibitory Time” value (dose 0.1 mg/kg body weight) was 6.9 min.
With `C=CCN1CC[C@]23c4c5ccc(O)c4O[C@H]2[C@H](N2Cc4ccccc4C2=O)CC[C@@]3(O)[C@H]1C5` [Compound 86, 2-(17-allyl-4,5α-epoxy-3,14-dihydroxy-morphinan-6β-yl)-2,3-dihydro-isoindol-1-one] the “Mean Inhibitory Time” value (dose 0.1 mg/kg body weight) was 12.1 min.
`C=CCN1CC[C@]23c4c5ccc(O)c4O[C@H]2[C@@H](N2Cc4ccccc4C2=O)CC[C@@]3(O)[C@H]1C5` [Compound 87, 2-(17-allyl-4,5α-epoxy-3,14-dihydroxy-morphinan-6α-yl)-2,3-dihydro-isoindol-1-one] was tested, and the “Mean Inhibitory Time” value (dose 0.1 mg/kg body weight) was 6.4 min.
For `C=CCN1CC[C@]23c4c5ccc(O)c4O[C@H]2[C@H](N2Cc4cccc(F)c4C2=O)CC[C@@]3(O)[C@H]1C5` [Compound 88, 2-(17-allyl-4,5α-epoxy-3,14-dihydroxy-morphinan-6β-yl)-7-fluoro-2,3-dihydro-isoindol-1-one], the “Mean Inhibitory Time” value (dose 0.03 mg/kg body weight) was 10.7 min.
With `C=CCN1CC[C@]23c4c5ccc(O)c4O[C@H]2[C@H](N2Cc4c(F)cccc4C2=O)CC[C@@]3(O)[C@H]1C5` [Compound 89, 2-(17-allyl-4,5α-epoxy-3,14-dihydroxy-morphinan-6β-yl)-4-fluoro-2,3-dihydro-isoindol-1-one] the “Mean Inhibitory Time” value (dose 0.1 mg/kg body weight) was 12.5 min.

— patent US7320984B2, “Remedies or preventives for urinary frequency or urinary incontinence and morphinan derivatives having nitrogen-containing heterocyclic group” (Toray Industries, Inc., priority 2002, dated 2008)
